ChEMBL document CHEMBL4004891, “Antioxidant Properties of Novel Dimers Derived from Natural β-Elemene through Inhibiting H2O2-Induced Apoptosis” (ACS Med Chem Lett, 2017)
The source made the active and inactive calls. No cut-off for these calls is given here.

System: HUVEC
Assay: Cytoprotective activity against H2O2-induced cell injury in HUVEC assessed as increase in cell viability at 10 uM pretreated for 24 hrs followed by H2O2-stimulation after 2 hrs by MTT assay
Assay type: functional, cell-based
Conditions: Homo sapiens

Row | Molecule | Activity
1 | C=C[C@]1(C)CC[C@@H](C(=C)COC(=O)CC[C@H](N)C(=O)OCC(=C)[C@@H]2CC[C@@](C)(C=C)[C@H](C(=C)C)C2)C[C@H]1C(=C)C | Active
2 | C=C[C@]1(C)CC[C@@H](C(=C)COC(=O)CCCC(=O)OCC(=C)[C@@H]2CC[C@@](C)(C=C)[C@H](C(=C)C)C2)C[C@H]1C(=C)C | Active
3 | C=C[C@]1(C)CC[C@@H](C(=C)COC(=O)[C@@H]2[C@H](C(=O)OCC(=C)[C@@H]3CC[C@@](C)(C=C)[C@H](C(=C)C)C3)[C@@H]3C=C[C@H]2C3)C[C@H]1C(=C)C | Active
4 | C=C[C@]1(C)CC[C@@H](C(=C)COC(=O)CCCn2cc(C(=O)OCC(=C)[C@@H]3CC[C@@](C)(C=C)[C@H](C(=C)C)C3)nn2)C[C@H]1C(=C)C | Active
5 | C=C[C@]1(C)CC[C@@H](C(=C)COC(=O)CCC(=O)N2CCN(C(=O)CCC(=O)OCC(=C)[C@@H]3CC[C@@](C)(C=C)[C@H](C(=C)C)C3)CC2)C[C@H]1C(=C)C | Active
6 | C=C[C@]1(C)CC[C@@H](C(=C)COCc2cn(CCCCCC(=O)OCC(=C)[C@@H]3CC[C@@](C)(C=C)[C@H](C(=C)C)C3)nn2)C[C@H]1C(=C)C | Active
7 | C=C[C@]1(C)CC[C@@H](C(=C)COC(=O)COCC(=O)OCC(=C)[C@@H]2CC[C@@](C)(C=C)[C@H](C(=C)C)C2)C[C@H]1C(=C)C | Active
8 | C=C[C@]1(C)CC[C@@H](C(=C)COC(=O)CCCN(C)CCN(C)CCCC(=O)OCC(=C)[C@@H]2CC[C@@](C)(C=C)[C@H](C(=C)C)C2)C[C@H]1C(=C)C | Active
9 | C=C[C@]1(C)CC[C@@H](C(=C)COC(=O)c2ccc(C(=O)OCC(=C)[C@@H]3CC[C@@](C)(C=C)[C@H](C(=C)C)C3)cc2)C[C@H]1C(=C)C | Active
10 | C=C[C@]1(C)CC[C@@H](C(=C)COC(=O)C[C@H](N)C(=O)OCC(=C)[C@@H]2CC[C@@](C)(C=C)[C@H](C(=C)C)C2)C[C@H]1C(=C)C | Active
11 | C=C[C@]1(C)CC[C@@H](C(=C)COCc2cn(CCCC(=O)OCC(=C)[C@@H]3CC[C@@](C)(C=C)[C@H](C(=C)C)C3)nn2)C[C@H]1C(=C)C | Active
12 | C=C[C@]1(C)CC[C@@H](C(=C)COC(=O)CC(=O)OCC(=C)[C@@H]2CC[C@@](C)(C=C)[C@H](C(=C)C)C2)C[C@H]1C(=C)C | Active
13 | C=C[C@]1(C)CC[C@@H](C(=C)COC(=O)c2cccc3cccc(C(=O)OCC(=C)[C@@H]4CC[C@@](C)(C=C)[C@H](C(=C)C)C4)c23)C[C@H]1C(=C)C | Active
14 | C=C[C@]1(C)CC[C@@H](C(=C)COC(=O)c2cn(CCCCn3cc(C(=O)OCC(=C)[C@@H]4CC[C@@](C)(C=C)[C@H](C(=C)C)C4)nn3)nn2)C[C@H]1C(=C)C | Active
15 | C=C[C@]1(C)CC[C@@H](C(=C)COC(=O)CCN2CCN(CCC(=O)OCC(=C)[C@@H]3CC[C@@](C)(C=C)[C@H](C(=C)C)C3)CC2)C[C@H]1C(=C)C | Active
16 | C=C[C@]1(C)CC[C@@H](C(=C)COCc2cn(CCCCC(=O)OCC(=C)[C@@H]3CC[C@@](C)(C=C)[C@H](C(=C)C)C3)nn2)C[C@H]1C(=C)C | Active
17 | C=C[C@]1(C)CC[C@@H](C(=C)COC(=O)CCN(C)CCN(C)CCC(=O)OCC(=C)[C@@H]2CC[C@@](C)(C=C)[C@H](C(=C)C)C2)C[C@H]1C(=C)C | Active
18 | C=C[C@]1(C)CC[C@@H](C(=C)COC(=O)CCCCCn2cc(C(=O)OCC(=C)[C@@H]3CC[C@@](C)(C=C)[C@H](C(=C)C)C3)nn2)C[C@H]1C(=C)C | Active
19 | C=C[C@]1(C)CC[C@@H](C(=C)CN2CCN(CC(=C)[C@@H]3CC[C@@](C)(C=C)[C@H](C(=C)C)C3)CC2)C[C@H]1C(=C)C | Active
20 | C=C[C@]1(C)CC[C@@H](C(=C)CN(C)CCN(C)CC(=C)[C@@H]2CC[C@@](C)(C=C)[C@H](C(=C)C)C2)C[C@H]1C(=C)C | Active
21 | C=C[C@]1(C)CC[C@@H](C(=C)COC(=O)C(=O)OCC(=C)[C@@H]2CC[C@@](C)(C=C)[C@H](C(=C)C)C2)C[C@H]1C(=C)C | Active
22 | C=C[C@]1(C)CC[C@@H](C(=C)COCc2cn(CCCCCCn3cc(COCC(=C)[C@@H]4CC[C@@](C)(C=C)[C@H](C(=C)C)C4)nn3)nn2)C[C@H]1C(=C)C | Active
23 | C=C[C@]1(C)CC[C@@H](C(=C)COCCCCOCC(=C)[C@@H]2CC[C@@](C)(C=C)[C@H](C(=C)C)C2)C[C@H]1C(=C)C | Active
24 | C=C[C@]1(C)CC[C@@H](C(=C)COCc2cn(CCCCn3cc(COCC(=C)[C@@H]4CC[C@@](C)(C=C)[C@H](C(=C)C)C4)nn3)nn2)C[C@H]1C(=C)C | Active
25 | C=C[C@]1(C)CC[C@@H](C(=C)COC(=O)c2cn(CCCCCCn3cc(C(=O)OCC(=C)[C@@H]4CC[C@@](C)(C=C)[C@H](C(=C)C)C4)nn3)nn2)C[C@H]1C(=C)C | Active
26 | C=C[C@]1(C)CC[C@@H](C(=C)COC(=O)c2cccc(C(=O)OCC(=C)[C@@H]3CC[C@@](C)(C=C)[C@H](C(=C)C)C3)c2)C[C@H]1C(=C)C | Active
27 | C=C[C@]1(C)CC[C@@H](C(=C)COC(=O)CCC(=O)OCC(=C)[C@@H]2CC[C@@](C)(C=C)[C@H](C(=C)C)C2)C[C@H]1C(=C)C | Active
28 | C=C[C@]1(C)CC[C@@H](C(=C)COC(=O)CCCCn2cc(C(=O)OCC(=C)[C@@H]3CC[C@@](C)(C=C)[C@H](C(=C)C)C3)nn2)C[C@H]1C(=C)C | Active
29 | C=C[C@]1(C)CC[C@@H](C(=C)COC(=O)CCCN2CCN(CCCC(=O)OCC(=C)[C@@H]3CC[C@@](C)(C=C)[C@H](C(=C)C)C3)CC2)C[C@H]1C(=C)C | Active

System: HUVEC
Assay: Cytoprotective activity against H2O2-induced cell injury in HUVEC assessed as increase in cell viability at 100 uM pretreated for 24 hrs followed by H2O2-stimulation after 2 hrs by MTT assay
Assay type: functional, cell-based
Conditions: Homo sapiens

Row | Molecule | Activity
30 | VITAMIN E | Active
